Experimental findings from ChEMBL document CHEMBL1131780 (Bioorg Med Chem Lett, 1999) are described below.

The target in data set [1] is T1, Muscarinic acetylcholine receptor M1 (Homo sapiens, UniProt P11229).
T1 sequence (P11229 whole entry): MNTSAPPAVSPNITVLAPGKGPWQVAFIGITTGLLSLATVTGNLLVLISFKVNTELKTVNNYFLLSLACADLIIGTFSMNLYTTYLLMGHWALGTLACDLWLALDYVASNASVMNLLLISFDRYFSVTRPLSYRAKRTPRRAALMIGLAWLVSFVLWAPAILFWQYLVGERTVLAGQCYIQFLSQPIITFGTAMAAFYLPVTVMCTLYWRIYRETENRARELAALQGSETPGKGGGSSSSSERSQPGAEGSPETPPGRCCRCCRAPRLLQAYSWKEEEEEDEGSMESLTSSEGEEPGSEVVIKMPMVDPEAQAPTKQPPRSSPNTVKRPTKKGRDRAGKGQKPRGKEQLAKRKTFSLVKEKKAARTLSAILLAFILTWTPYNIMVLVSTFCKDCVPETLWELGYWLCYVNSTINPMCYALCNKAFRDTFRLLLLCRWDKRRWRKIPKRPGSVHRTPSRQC
Put plainly: Affinity towards human M1 receptor expressed in CHO cells using [3H]QNB as radioligand. Type of data set: cell-based.

Data set [2] deals with T2, Muscarinic acetylcholine receptor M3 (Homo sapiens, UniProt P20309). Put plainly: Binding affinity towards human muscarinic M3 receptor.
Data set [3] concerns the target T1, Muscarinic acetylcholine receptor M1. Put plainly: In vitro functional agonism against M1 muscarinic receptor (PI).
The target of data set [4] is T3, Muscarinic acetylcholine receptor M2 (Homo sapiens, UniProt P08172).
T3 sequence (P08172 whole entry): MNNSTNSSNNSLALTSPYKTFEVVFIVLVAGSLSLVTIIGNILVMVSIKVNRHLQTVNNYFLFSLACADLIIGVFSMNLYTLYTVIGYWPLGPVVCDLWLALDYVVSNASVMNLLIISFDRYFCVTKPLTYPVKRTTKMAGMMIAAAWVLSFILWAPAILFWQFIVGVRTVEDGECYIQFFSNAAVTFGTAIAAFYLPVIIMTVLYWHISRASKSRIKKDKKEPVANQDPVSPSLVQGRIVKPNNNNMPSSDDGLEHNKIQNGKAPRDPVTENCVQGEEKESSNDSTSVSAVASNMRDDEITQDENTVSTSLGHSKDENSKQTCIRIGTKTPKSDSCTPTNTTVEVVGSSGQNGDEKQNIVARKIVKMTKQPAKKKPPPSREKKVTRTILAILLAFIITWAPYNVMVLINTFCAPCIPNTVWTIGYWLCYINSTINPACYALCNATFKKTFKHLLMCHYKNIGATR
The data set can be described thus: In vitro functional agonism against M2 muscarinic receptor (cAMP).

Data set [5] deals with T2, Muscarinic acetylcholine receptor M3. The data set can be described thus: In vitro functional agonism against M3 muscarinic receptor (PI).
Data set [6] deals with Rattus norvegicus. Put plainly: Compound was evaluated in vivo for cognitive impairment reduction in AF64-impaired RAM, rat administered subcutaneously. It counts as functional. Conditions: sc, read-out: MED.
Data set [7] is described as follows: Compound was evaluated for half-life in human liver microsomes. It counts as ADME, Microsome.
The subject of data set [8] is Monkey. Put plainly: In vivo cognitive assessment after oral administration of WAY-132983 in primates (Rhesus and cynomolgus monkeys) using pre-trained aged subjects (long delay). It counts as functional. The following applies: Cercopithecidae, read-out: MED.
Data set [9] deals with Monkey. The data set can be described thus: In vivo cognitive assessment after oral administration of WAY-132983 in primates (Rhesus and cynomolgus monkeys) using pre-trained aged subjects (short delay). It counts as functional. The following applies: Cercopithecidae, read-out: MED.
Data set [10] addresses T3, Muscarinic acetylcholine receptor M2. The data set can be described thus: Binding affinity towards human muscarinic M2 receptor.
Data set [11] concerns the target T4, Muscarinic acetylcholine receptor M1 (Rattus norvegicus, UniProt P08482).
T4 sequence (P08482 whole entry): T1 sequence (P11229 whole entry) with A5V, T254S, P309S, R320K, A337G, I413V
Put plainly: Binding affinity against M1 receptor was determined by displacing [3H]OXO-M in rat cortical homogenate.

Data set [12] concerns the target T5, Muscarinic acetylcholine receptor M2 (Homo sapiens) (UniProt P08172).
T5 sequence (whole entry): T3 sequence (P08172 whole entry)
Put plainly: Effective dose against affinity towards human muscarinic M2 receptor. It counts as functional.

For data set [13], the target named is T6, Muscarinic acetylcholine receptor M1 (Homo sapiens) (UniProt P11229).
T6 sequence (whole entry): T1 sequence (P11229 whole entry)
The data set can be described thus: Efficacy expressed as PI (percentage of carbachol) against human M1 receptor expressed in CHO cells. It counts as functional, cell-based.

The target of data set [14] is T6, Muscarinic acetylcholine receptor M1 (Homo sapiens).
Description: Effective dose against affinity towards human muscarinic M1 receptor
A short description of data set [15]: Compound was evaluated in vivo for lethal dose in rats. It counts as ADME, organism-based. The following applies: rat.
Data set [16] is filed under the species Rattus norvegicus. The data set can be described thus: Compound was evaluated for minimum effective dose in the rat radial arm maze model. The following applies: read-out: MED. Type of data set: functional.

Structures are written as SMILES. Where a chain is given by its changes, count along the chain named.

T2 sequence (P20309 whole entry): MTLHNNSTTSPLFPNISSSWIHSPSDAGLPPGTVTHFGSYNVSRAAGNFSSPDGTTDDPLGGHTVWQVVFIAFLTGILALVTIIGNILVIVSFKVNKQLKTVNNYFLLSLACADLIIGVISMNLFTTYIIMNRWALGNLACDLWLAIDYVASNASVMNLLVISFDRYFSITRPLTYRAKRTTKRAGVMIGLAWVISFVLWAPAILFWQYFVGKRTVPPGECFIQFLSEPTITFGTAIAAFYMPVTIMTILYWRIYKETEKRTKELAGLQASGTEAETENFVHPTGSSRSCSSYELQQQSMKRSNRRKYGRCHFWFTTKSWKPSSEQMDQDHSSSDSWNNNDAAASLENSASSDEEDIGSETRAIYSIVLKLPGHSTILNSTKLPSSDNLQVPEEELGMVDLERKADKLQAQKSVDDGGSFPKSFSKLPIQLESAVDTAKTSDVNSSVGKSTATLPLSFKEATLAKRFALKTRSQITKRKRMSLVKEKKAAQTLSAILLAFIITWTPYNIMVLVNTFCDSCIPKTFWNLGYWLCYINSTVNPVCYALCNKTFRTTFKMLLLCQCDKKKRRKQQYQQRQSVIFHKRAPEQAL

As to `CCCCCCSc1nccnc1OC1CN2CCC1C2` (stereo in doubt; 4) [listing 1 of 2 here], the Ki (commonly a measure of affinity in units of concentration, obtained from inhibition or displacement) in data set [1] is 0.007 µM.
Take `c1cnc(O[C@@H]2CN3CCC2C3)cn1` (stereo in doubt; 2) [listing 1 of 2 here]: the affinity in [1], expressed as Ki, was 2.5 µM.
Take `CCCCCCSc1nccnc1O[C@H]1CN2CCC1C2.Cl` (stereo not given in full): the Ki in [2] was determined as 0.0059 µM; in data set [1] it was 0.002 µM; in [10], 0.0034 µM; in [11] it was 0.0004 µM. Moreover, the EC50 – broadly, the concentration giving half of the maximal effect – in data set [3] amounted to 0.0011 µM; in data set [4], 0.008 µM; in data set [5], 0.0037 µM. For the same molecule, the results for the minimal effective dose in data set [6], in data set [8] and in data set [9] were 0.03 mg/kg, 0.01 mg/kg and 0.03 mg/kg, respectively. Further, in data set [7], the half-life (in general, the time needed for the level to fall by half in the phase considered) was determined as 1.88 h.
For the molecule `CCCCCCOc1nccnc1OC1CN2CCC1C2` (stereo not given), the results for the ED50 in data set [12] and in data set [14] were 0.6 µM and 0.0014 µM, respectively. The molecule further gave a PI in data set [13] of 88%. Further, the inhibition constant Ki in [10] amounted to 0.02 µM.
For the molecule `CCCCCCOc1nsnc1C1=CCCN(C)C1`, the PI in data set [13] amounted to 79%.
Regarding `CCCCCCOc1nccnc1O[C@H]1CN2CCC1C2` (stereo not given in full), the PI in data set [13] came out at 56%. In [1], this molecule registered a Ki of 0.69 µM.
Take `CCCCCCOc1nccnc1O[C@@H]1CN2CCC1C2` (stereo in doubt; 12) [listing 1 of 2 here]: the PI in [13] was determined as 9%.
The same measure, in the same setting: for `CCCCCCSc1nccnc1OC1CN2CCC1C2` (stereo in doubt; 8) the value was 104%.
As to `CCCCCCOc1nccnc1SC1CN2CCC1C2` (stereo not given), in [13], the PI is 42%.
`c1cnc(O[C@@H]2CN3CCC2C3)cn1` (stereo in doubt; 1) [listing 1 of 2 here]: the LD50 (commonly the dose at which mortality reaches 50%) in data set [15] was 30 mg/kg. Further, the Ki came to 5.6 µM in data set [1] and 0.04 µM in data set [10].
In [13], `CCCCCCSc1nccnc1O[C@@H]1CN2CCC1C2` (stereo not given in full) displayed a PI of 107%. The Ki in data set [1] amounted to 0.075 µM.
Consider `CCCCCCSc1nccnc1SC1CN2CCC1C2` (stereo not given), for which the PI in data set [13] stood at 62%.
Turning to `CCCCCCSc1nccnc1O[C@H]1CN2CCC1C2` (stereo not given in full), the Ki in [1] turned out to be 0.124 µM.
Molecule `CNC(=O)O[C@@H]1CN2CCC1C2` (stereo not given in full) came in with a PI in data set [13] of 100%. In [1], this molecule came in with a Ki of 26 µM. Moreover, in [16], the minimal effective dose came to 1 mg/kg.
Turning to `c1cnc(O[C@@H]2CN3CCC2C3)cn1` (stereo in doubt; 1) [listing 2 of 2 here], in [13], the PI came out at 96%.
Same read-out and setting: with `CCCCCCSc1nccnc1OC1CN2CCC1C2` (stereo in doubt; 4) [listing 2 of 2 here] the figure was 85%; with `c1cnc(O[C@@H]2CN3CCC2C3)cn1` (stereo in doubt; 2) [listing 2 of 2 here], 83%.
For `CCCCCCOc1nccnc1O[C@@H]1CN2CCC1C2` (stereo in doubt; 12) [listing 2 of 2 here], in [1], the affinity corresponds to a Ki of 0.465 µM.
With `CCCCCCSc1cncc(OC2CN3CCC2C3)n1` (stereo not given), the PI in [13] came to 2%. Besides, in [1], the affinity corresponds to a Ki of 0.022 µM.
In turn, `CCCCCCOc1nccnc1O[C@@H]1CN2CCC1C2` (stereo in doubt; 6) yielded an inhibitory constant (Ki) in [1] of 0.014 µM.
